Data as given in US20260206755A1, “COMPOUNDS AND COMPOSITIONS HAVING KNOCK-DOWN OR BLOOD FEED INHIBITION ACTIVITY AGAINST INSECT PESTS” (priority 2017, published 2026).
Where two headings read alike, the source gives them in different places.

Tested on: Anopheles stephensi
Experiment: Anopheles stephensi treated well plate contact test: knockdown and mortality
Assay type: in vivo
Experimental: Examples Anopheles stephensi (Indian Malaria Mosquito)
The individual wells of twelve (12) well tissue culture plates were treated with 200 μl of an ethanol solution containing a test compound of Table 1 or Table 2 at a defined concentration and repeated with also 200 μl of an ethanol solution containing in addition 2 ppm TFNA-AM. Once the deposits were dry, five non-blood fed adult female Anopheles stephensi (between two to five day old) were added to each well, and sustained with a 10% sucrose solution in a cotton wool plug. Assessment of the knockdown after 1 hour, and mortality after 24 and 48 hours was carried out.
In case of multiple tests, the mean value is reported.

[1] = Anopheles stephensi, test compound 0.2 ppm, without TFNA-AM, after 24 hours, read-out: mortality % 24, without TFNA-AM
[2] = Anopheles stephensi, test compound 0.2 ppm, without TFNA-AM, after 48 hours, read-out: mortality % 48, without TFNA-AM
[3] = Anopheles stephensi, test compound 0.2 ppm, without TFNA-AM, knockdown after 1 hour, read-out: Knock Down, without TFNA-AM
[4] = Anopheles stephensi, test compound 2 ppm, without TFNA-AM, after 24 hours, read-out: mortality % 24, without TFNA-AM
[5] = Anopheles stephensi, test compound 2 ppm, without TFNA-AM, after 48 hours, read-out: mortality % 48, without TFNA-AM
[6] = Anopheles stephensi, test compound 2 ppm, without TFNA-AM, knockdown after 1 hour, read-out: Knock Down, without TFNA-AM
[7] = Anopheles stephensi, test compound 20 ppm, without TFNA-AM, after 24 hours, read-out: mortality % 24, without TFNA-AM
[8] = Anopheles stephensi, test compound 20 ppm, without TFNA-AM, after 48 hours, read-out: mortality % 48, without TFNA-AM
[9] = Anopheles stephensi, test compound 20 ppm, without TFNA-AM, knockdown after 1 hour, read-out: Knock Down, without TFNA-AM
[10] = Anopheles stephensi, test compound 200 ppm, without TFNA-AM, after 24 hours, read-out: mortality % 24, without TFNA-AM
[11] = Anopheles stephensi, test compound 200 ppm, without TFNA-AM, after 48 hours, read-out: mortality % 48, without TFNA-AM
[12] = Anopheles stephensi, test compound 200 ppm, without TFNA-AM, knockdown after 1 hour, adult females, read-out: Knock Down, without TFNA-AM
[13] = test compound 0.2 ppm plus 2 ppm TFNA-AM, after 24 hours
[14] = test compound 0.2 ppm plus 2 ppm TFNA-AM, after 48 hours
[15] = test compound 0.2 ppm plus 2 ppm TFNA-AM, knockdown after 1 hour
[16] = test compound 2 ppm plus 2 ppm TFNA-AM, after 24 hours
[17] = test compound 2 ppm plus 2 ppm TFNA-AM, after 48 hours
[18] = test compound 2 ppm plus 2 ppm TFNA-AM, knockdown after 1 hour
[19] = test compound 20 ppm plus 2 ppm TFNA-AM, after 24 hours
[20] = test compound 20 ppm plus 2 ppm TFNA-AM, after 48 hours
[21] = test compound 20 ppm plus 2 ppm TFNA-AM, knockdown after 1 hour
[22] = test compound 200 ppm plus 2 ppm TFNA-AM, after 24 hours
[23] = test compound 200 ppm plus 2 ppm TFNA-AM, after 48 hours
[24] = test compound 200 ppm plus 2 ppm TFNA-AM, knockdown after 1 hour
[25] = Anopheles stephensi, 24 h, read-out: mortality % 24, without TFNA-AM
[26] = Anopheles stephensi, 48 h, read-out: mortality % 48, without TFNA-AM

Compound	mortality at 0.2 ppm [1]	mortality at 0.2 ppm [2]	pest or weed control at 0.2 ppm [3]	mortality at 2 ppm [4]	mortality at 2 ppm [5]	pest or weed control at 2 ppm [6]	mortality at 20 ppm [7]	pest or weed control at 20 ppm [9]	mortality % 24, with TFNA-AM [13]	mortality % 48, with TFNA-AM [14]	Knock Down, with TFNA-AM [15]	mortality % 24, with TFNA-AM [16]	mortality % 48, with TFNA-AM [17]	Knock Down, with TFNA-AM [18]	mortality % 24, with TFNA-AM [19]	mortality % 48, with TFNA-AM [20]	Knock Down, with TFNA-AM [21]	mortality % 24, with TFNA-AM [22]	mortality % 48, with TFNA-AM [23]	Knock Down, with TFNA-AM [24]	also measured
Cc1ccc(/N=C/N(C)/C=N/c2ccc(C)cc2C)c(C)c1 [Amitraz]	0%	0%	0%	0%	0%	0%	0%	0%	20%	0%	100%	20%	0%	100%	20%	40%	100%	100%	100%	100%	mortality at 20 ppm [8]: 0%; mortality at 200 ppm [10]: 0%; mortality at 200 ppm [11]: 0%; pest or weed control at 200 ppm [12]: 0%
C/C=C(\C)C(=O)O[C@H]1C[C@@H](OC(C)=O)[C@@]2(C(=O)OC)CO[C@H]3[C@@H](O)[C@@](C)([C@]45O[C@@]4(C)[C@H]4C[C@@H]5O[C@@H]5OC=C[C@@]54O)[C@H]4[C@]1(CO[C@]4(O)C(=O)OC)[C@@H]32 [Azadirachtin]	0%	0%	0%	0%	0%	0%	0%	0%	20%	20%	100%	20%	20%	100%	60%	40%	100%	80%	80%	100%	mortality at 20 ppm [8]: 0%; mortality at 200 ppm [10]: 0%; mortality at 200 ppm [11]: 0%; pest or weed control at 200 ppm [12]: 0%
CNC(=O)Oc1cccc2c1OC(C)(C)O2 [Bendiocarb]	–	–	20%	–	–	100%	–	100%	100%	100%	100%	100%	100%	100%	100%	100%	100%	–	–	–	mortality at 0.02 ppm [25]: 0%; mortality at 0.2 ppm [25]: 60%; mortality at 2 ppm [25]: 100%; mortality at 20 ppm [25]: 100%; mortality at 0.02 ppm [26]: 0%; mortality at 0.2 ppm [26]: 60%; mortality at 2 ppm [26]: 100%; mortality at 20 ppm [26]: 100%; pest or weed control at 0.02 ppm (Anopheles stephensi, test compound 0.02 ppm, without TFNA-AM, knockdown after 1 hour, read-out: Knock Down, without TFNA-AM): 0%; mortality % 24, with TFNA-AM (test compound 0.02 ppm plus 2 ppm TFNA-AM, after 24 hours): 20%; Knock Down, with TFNA-AM (test compound 0.02 ppm plus 2 ppm TFNA-AM, knockdown after 1 hour): 100%
CN(C(=O)c1ccccc1)c1cccc(C(=O)Nc2c(Br)cc(C(F)(C(F)(F)F)C(F)(F)F)cc2C(F)(F)F)c1F [Broflanilide]	–	–	–	–	–	–	–	–	87%	93%	100%	100%	100%	100%	100%	100%	93%	100%	100%	87%	mortality % 24, without TFNA-AM (test compound 0.2 ppm, without TFNA-AM, after 24 hours): 0%; mortality % 48, without TFNA-AM (test compound 0.2 ppm, without TFNA-AM, after 48 hours): 20%; Knock Down, without TFNA-AM (test compound 0.2 ppm, without TFNA-AM, knockdown after 1 hour): 0%; mortality % 24, without TFNA-AM (test compound 2 ppm, without TFNA-AM, after 24 hours): 100%; mortality % 48, without TFNA-AM (test compound 2 ppm, without TFNA-AM, after 48 hours): 100%; Knock Down, without TFNA-AM (test compound 2 ppm, without TFNA-AM, knockdown after 1 hour): 0%; mortality % 24, without TFNA-AM (test compound 20 ppm, without TFNA-AM, after 24 hours): 100%; mortality % 48, without TFNA-AM (test compound 20 ppm, without TFNA-AM, after 48 hours): 100%; Knock Down, without TFNA-AM (test compound 20 ppm, without TFNA-AM, knockdown after 1 hour): 0%; mortality % 24, without TFNA-AM (test compound 200 ppm, without TFNA-AM, after 24 hours): 100%; mortality % 48, without TFNA-AM (test compound 200 ppm, without TFNA-AM, after 48 hours): 100%; Knock Down, without TFNA-AM (test compound 200 ppm, without TFNA-AM, knockdown after 1 hour, adult females): 0%
